Here are results for 21 compounds from ChEMBL document CHEMBL4665755, “Discovery of a phenylpyrazole amide ROCK inhibitor as a tool molecule for in vivo studies” (Bioorg Med Chem Lett, 2020).

A short description of data set [1]: Metabolic stability in human liver microsomes assessed as parent compound remaining at 0.5 uM after 10 mins. Type of data set: ADME, Microsome. As to conditions: read-out: Stabilty.
Data set [2] can be described thus: Permeability of the compound at pH 5.5 by PAMPA. The class given is ADME. The conditions noted are these: read-out: permeability.
The nature of data set [3]: Cmax in mouse at 10 mg/kg, po. The conditions noted are these: in vivo. The class given is ADME, organism-based. Further details: route oral, dose 10 mg/kg.
Data set [4] is described as follows: Permeability of the compound at pH 7.4 by PAMPA. As to conditions: read-out: permeability. The class given is ADME.
A short description of data set [5]: AUC in mouse at 10 mg/kg, po. The conditions noted are these: in vivo. Further details: dose 10 mg/kg. Type of data set: ADME, organism-based.
Data set [6] in a line: Metabolic stability in human liver microsomes assessed as half life. Type of data set: ADME, Microsome.
Data set [7] can be described thus: Cmax in mouse at 2 mg/kg, po. Details: route oral, dose 2 mg/kg. The class given is ADME, organism-based. As to conditions: in vivo.
The nature of data set [8]: AUC in mouse at 2 mg/kg, po. The class given is ADME, organism-based. Details: dose 2 mg/kg. As to conditions: in vivo.

Consider `COc1cccc([C@@H](C)NC(=O)c2ccc(-c3cn[nH]c3)cc2OC)c1`, for which the remaining at 10 min, 0.5 µM in data set [1] stood at 49%. For `COc1cccc([C@@H](C)NC(=O)c2ccc(-c3cn[nH]c3)c(OC)c2)c1`, in data set [1], the remaining at 10 min, 0.5 µM came out at 32%. For `COc1cccc(CNC(=O)c2ccc(-c3cn[nH]c3)c(OC)c2)c1`, the remaining at 10 min, 0.5 µM in data set [1] was 49%. In the case of `COc1cc(C(=O)N[C@H](CO)c2ccccc2)ccc1-c1cn[nH]c1`, the Papp in data set [2] is 10.5 ×10⁻⁶ cm/s; in data set [4] it was 11 ×10⁻⁶ cm/s. Besides, in data set [3], the Cmax stood at 21 µM. In data set [1], the remaining at 10 min, 0.5 µM came to 87%. This compound also had an AUC in data set [5] of 90 µM·h. As for `COc1cccc([C@@H](C)NC(=O)c2ccc(-c3cn[nH]c3)c(Cl)c2)c1`, the remaining at 10 min, 0.5 µM in data set [1] was determined as 59%. As to `COc1cccc([C@@H](C)NC(=O)c2ccc(-c3cn[nH]c3)c(OC)c2F)c1`, the remaining at 10 min, 0.5 µM in data set [1] was 57%. Regarding `COc1cccc([C@@H](C)NC(=O)c2ccc(-c3cn[nH]c3)c(C)c2)c1`, the Papp in data set [2] turned out to be 29 ×10⁻⁶ cm/s; in data set [4], 20 ×10⁻⁶ cm/s. The compound further displayed a peak concentration (Cmax) in data set [3] of 12 µM. Further, the remaining at 10 min, 0.5 µM in data set [1] was determined as 74%. This compound also had an AUC in data set [5] of 35 µM·h. As for `COc1cccc([C@@H](C)NC(=O)c2ccc(-c3cn[nH]c3)c(C(F)(F)F)c2)c1`, the remaining at 10 min, 0.5 µM in data set [1] worked out at 44%.

As to `COc1cc(C(=O)N[C@H](CN)c2ccccc2)ccc1-c1cn[nH]c1`, the remaining at 10 min, 0.5 µM in data set [1] came to 93%. Same read-out and setting: as for `COc1cccc([C@@H](C)NC(=O)c2ccc(-c3cn[nH]c3)c(C#N)c2)c1`, the figure is 67%.

For `COc1cc(NC(=O)[C@H](N)CCc2ccccc2)ccc1-c1cn[nH]c1`, the Papp was 45 ×10⁻⁶ cm/s in data set [2] and 74 ×10⁻⁶ cm/s in data set [4]. This compound also had a maximum concentration (Cmax) in data set [3] of 28 µM. The half-life in data set [6] was found to be 41 min. The compound further returned an area under the curve (AUC) in data set [5] of 140 µM·h.

`COc1cc(C(=O)N[C@H](C)c2c(F)cccc2F)ccc1-c1cn[nH]c1`: the Papp in data set [2] and in data set [4] was 61 ×10⁻⁶ cm/s in each case. This compound returned a Cmax in data set [3] of 23 µM. Further, the remaining at 10 min, 0.5 µM in data set [1] came to 79%. This compound gave an AUC in data set [5] of 140 µM·h. As for `COc1cc(NC(=O)[C@@H](N)CCc2ccccc2)ccc1-c1cn[nH]c1`, the half-life in data set [6] was 62 min.

`COc1cc(C(=O)N[C@H](C)c2ccccc2F)ccc1-c1cn[nH]c1`: in data set [1], the remaining at 10 min, 0.5 µM came out at 73%.

As for `COc1cc(NC(=O)Cc2ccccc2Cl)ccc1-c1cn[nH]c1`, in data set [6], the half-life came out at 36 min. In the case of `COc1cc(C(=O)N[C@@H](c2ccccc2F)C(C)(C)O)ccc1-c1cn[nH]c1`, the Papp in data set [2] amounted to 52 ×10⁻⁶ cm/s; in data set [4] it was 44 ×10⁻⁶ cm/s. Moreover, the remaining at 10 min, 0.5 µM in data set [1] is 92%. The same compound had a Cmax in data set [7] of 1.3 µM. This compound yielded an AUC in data set [8] of 5 µM·h. As for `COc1cc(NC(=O)[C@H](N)Cc2ccc(Cl)c(Cl)c2)ccc1-c1cn[nH]c1`, the half-life in data set [6] was determined as 31 min. Same read-out and setting: as for `COc1cc(NC(=O)[C@H](N)c2ccccc2Cl)ccc1-c1cn[nH]c1`, the figure is 20 min. On to `COc1cc(NC(=O)[C@H](O)c2ccccc2Cl)ccc1-c1cn[nH]c1`, for which, in data set [6], the half-life is 15 min. `CCc1cc(C(=O)N[C@H](C)c2cccc(OC)c2)ccc1-c1cn[nH]c1`: the remaining at 10 min, 0.5 µM in data set [1] worked out at 38%.

For the compound `COc1cc(C(=O)N[C@H](CO)c2c(F)cccc2F)ccc1-c1cn[nH]c1`, in data set [1], the remaining at 10 min, 0.5 µM stood at 90%.
